Assay results from PubChem BioAssay (NCI).
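Five compound concentrations were applied to cells in 96-well plates for 48 hours; endpoints were derived by simple linear interpolation of the resulting dose-response curve. Here, GI50 denotes the concentration required for 50% inhibition of growth. TGI: total growth inhibition.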

Columns and labels:
Test in all cases: growth of human tumour cells (NCI), 48 h
[1] = system: SK-MEL-28 melanoma
[2] = system: KM12 colon
[3] = system: LOX IMVI melanoma
[4] = system: SNB-75 CNS
[5] = system: EKVX NSCLC
[6] = system: SF-295 CNS
[7] = system: M14 melanoma
[8] = system: MDA-MB-435
[9] = system: BT-549 breast
[10] = system: UO-31 renal
[11] = system: RPMI-8226 leukemia
[12] = system: HOP-62 NSCLC
[13] = system: HCT-15 colon
[14] = system: SF-268 CNS
[15] = system: SR leukemia
[16] = system: NCI-H23 lung
[17] = system: U251 CNS
[18] = system: NCI-H522 lung
[19] = system: UACC-62 melanoma
[20] = system: HCC-2998 colon
[21] = system: K-562 leukemia
[22] = system: HCT-116 colon
[23] = system: UACC-257 melanoma
[24] = system: HS 578T breast
[25] = system: MDA-MB-231 breast
[26] = system: DU-145 prostate
[27] = system: SF-539 CNS
[28] = system: NCI/ADR-RES ovarian
[29] = system: COLO 205 colon
[30] = system: 786-0 renal
[31] = system: CCRF-CEM leukemia
[32] = system: TK-10 renal
[33] = system: SW-620 colon
[34] = system: OVCAR-5 ovarian
[35] = system: NCI-H226 lung
[36] = system: SK-MEL-5 melanoma
[37] = system: RXF 393 renal
[38] = system: NCI-H460 lung
[39] = system: MCF7 breast
[40] = system: A498 renal
[41] = system: PC-3 prostate
[42] = system: HL-60(TB) leukemia
[43] = system: MALME-3M melanoma
[44] = system: OVCAR-8 ovarian
[45] = system: ACHN renal
[46] = system: SNB-19 CNS
[47] = system: HT29 colon
[48] = system: SK-OV-3 ovarian
[49] = system: MOLT-4 leukemia
[50] = system: T-47D breast
[51] = system: OVCAR-3 ovarian
[52] = system: OVCAR-4 ovarian
[53] = system: IGROV1 ovarian
[54] = system: HOP-92 NSCLC
[55] = system: SN12C renal
[56] = system: SK-MEL-2 melanoma
[57] = system: A549 NSCLC

Cc1cc(C)c2nc(Nc3nc(C)c(C)c(=O)[nH]3)nc(C)c2c1
GI50 [1]: 2.35 µM | TGI [1]: 7.64 µM | GI50 [2]: 3.02 µM | TGI [2]: 23.9 µM | GI50 [3]: 1.92 µM | TGI [3]: 5.38 µM | GI50 [4]: 2.9 µM | TGI [4]: 13.6 µM | GI50 [5]: 2.58 µM | TGI [5]: 10.9 µM | GI50 [6]: 2.29 µM | TGI [6]: 6.44 µM | GI50 [7]: 2.58 µM | TGI [7]: 8.79 µM | GI50 [8]: 3.13 µM | TGI [8]: 13.2 µM | GI50 [9]: 2.01 µM | TGI [9]: 8.48 µM | GI50 [10]: 1.82 µM | TGI [10]: 5.86 µM | GI50 [11]: 2.13 µM | TGI [11]: 6.21 µM | GI50 [12]: 1.96 µM | TGI [12]: 8.82 µM | GI50 [13]: 2.94 µM | TGI [13]: 14.5 µM | GI50 [14]: 2.82 µM | TGI [14]: 13.8 µM | GI50 [15]: 2.18 µM | TGI [15]: 7.43 µM | GI50 [16]: 3.44 µM | TGI [16]: 20.4 µM | GI50 [17]: 3.18 µM | TGI [17]: 12 µM | GI50 [18]: 1.63 µM | TGI [18]: 6.33 µM | GI50 [19]: 2.08 µM | TGI [19]: 5.5 µM | GI50 [20]: 3.81 µM | TGI [20]: 19.6 µM | GI50 [21]: 2.53 µM | TGI [21]: 11.1 µM | GI50 [22]: 2.94 µM | TGI [22]: 12.9 µM | GI50 [23]: 2.82 µM | TGI [23]: 9.22 µM | GI50 [24]: 4.53 µM | TGI [24]: 34.1 µM | GI50 [25]: 2.99 µM | TGI [25]: 12.7 µM | GI50 [26]: 3.8 µM | TGI [26]: 24.1 µM | GI50 [27]: 2.54 µM | TGI [27]: 10.3 µM | GI50 [28]: 4.12 µM | TGI [28]: 57.3 µM | GI50 [29]: 2.51 µM | TGI [29]: 7.51 µM | GI50 [30]: 2.4 µM | TGI [30]: 12.3 µM | GI50 [31]: 2.72 µM | TGI [31]: 8.61 µM | GI50 [32]: 3.05 µM | TGI [32]: 17.9 µM | GI50 [33]: 3.12 µM | TGI [33]: 15.5 µM | GI50 [34]: 3.01 µM | TGI [34]: 18.5 µM | GI50 [35]: 2.93 µM | TGI [35]: 15.4 µM | GI50 [36]: 3.06 µM | TGI [36]: 11.8 µM | GI50 [37]: 2.39 µM | TGI [37]: 7.55 µM | GI50 [38]: 2.99 µM | TGI [38]: 11.1 µM | GI50 [39]: 2.14 µM | TGI [39]: 10.7 µM | GI50 [40]: 2.02 µM | TGI [40]: 5.54 µM | GI50 [41]: 2.96 µM | TGI [41]: 15.1 µM | GI50 [42]: 2.53 µM | TGI [42]: 6.98 µM | GI50 [43]: 1.61 µM | TGI [43]: 7.48 µM | GI50 [44]: 2.83 µM | TGI [44]: 10.7 µM | GI50 [45]: 3.06 µM | TGI [45]: 11.6 µM | GI50 [46]: 3.19 µM | TGI [46]: 14.3 µM | GI50 [47]: 2.25 µM | TGI [47]: 6.04 µM | GI50 [48]: 2.5 µM | TGI [48]: 10.3 µM | GI50 [49]: 2.35 µM | TGI [49]: 9.37 µM | GI50 [50]: 1.65 µM | TGI [50]: 8.42 µM | GI50 [51]: 3.59 µM | TGI [51]: 13.1 µM | GI50 [52]: 3.27 µM | TGI [52]: 15.6 µM | GI50 [53]: 2.85 µM | TGI [53]: 12.8 µM | GI50 [54]: 2.48 µM | TGI [54]: 9.11 µM | GI50 [55]: 2.27 µM | TGI [55]: 12 µM | GI50 [56]: 2.27 µM | TGI [56]: 7.09 µM | GI50 [57]: 2.27 µM | TGI [57]: 5.92 µM
